Laboratory results published in patent US20260053811A1, “METHODS OF TREATING HYPERTENSION IN OBESE SUBJECTS” (Mineralys Therapeutics, Inc., priority 2022, published 2026).

Test system: hypertensive subjects
Test: Adverse events (TEAEs, SAEs, AESI, study drug discontinuation, dose modification);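 further: counts of spontaneously reported adverse events in the Safety Analysis Set, subjects grouped by treatment actually received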
Type: in vivo, human
From the text: In analyses performed on the Safety Analysis Set, subjects will be analyzed according to their actual treatment received.

## CC(=O)N[C@H]1CC[C@H](NC(=O)CN2CCN(c3nncc(-c4ccc(C)cc4)n3)CC2)CC1 [Compound A HBr]
100mg QD Pooled (N 60)
  Dose titration: Hyperkalemia, subjects n (%): 2 (3.3%)
  Dose titration: Hyponatremia, subjects n (%): 1 (1.7%)
  Dose titration: Other possibly related, subjects n (%): 0
  Dose titration: Other unrelated, subjects n (%): 0
  Study drug discontinuation: Hyperkalemia, subjects n (%): 2 (3.3%)
  Study drug discontinuation: Hyponatremia, subjects n (%): 1 (1.7%)
  Study drug discontinuation: Hypotension, subjects n (%): 2 (3.3%)
  Study drug discontinuation: Other possibly related, subjects n (%): 1 (1.7%)
  Study drug discontinuation: Other unrelated, subjects n (%): 4 (6.7%)
Part 1
  Subjects with TEAE resulting in dose modification: 24
Part 1 100mg QD (N 29)
  Dose titration: Hyperkalemia, subjects n (%): 1 (3.4%)
  Dose titration: Hyponatremia, subjects n (%): 0
  Dose titration: Other possibly related, subjects n (%): 0
  Dose titration: Other unrelated, subjects n (%): 0
  Study drug discontinuation: Hyperkalemia, subjects n (%): 2 (6.9%)
  Study drug discontinuation: Hyponatremia, subjects n (%): 0
  Study drug discontinuation: Hypotension, subjects n (%): 1 (3.4%)
  Study drug discontinuation: Other possibly related, subjects n (%): 1 (3.4%)
  Study drug discontinuation: Other unrelated, subjects n (%): 3 (6.0%)
Part 1, 12.5 mg BID (N = 22)
  On-treatment TEAE: Blood and lymphatic system disorders: 0 n (%)
  On-treatment TEAE: Blood and lymphatic system disorders, Mild: 0 n (%)
  On-treatment TEAE: Blood creatinine increased: 0 n (%)
  On-treatment TEAE: Blood creatinine increased, Mild: 0 n (%)
  On-treatment TEAE: Cardiac disorders: 1 (4.5) n (%)
  On-treatment TEAE: Cortisol decreased: 2 (9.1) n (%)
  On-treatment TEAE: Cortisol decreased, Mild: 2 (9.1) n (%)
  On-treatment TEAE: Dizziness: 0 n (%)
  On-treatment TEAE: Gastrointestinal disorders: 0 n (%)
  On-treatment TEAE: Gastrointestinal disorders, Mild: 0 n (%)
  On-treatment TEAE: General disorders and administration site conditions: 2 (9.1) n (%)
  On-treatment TEAE: General disorders and administration site conditions, Mild: 1 (4.5) n (%)
  On-treatment TEAE: Glomerular filtration rate decreased: 3 (13.6) n (%)
  On-treatment TEAE: Glomerular filtration rate decreased, Mild: 3 (13.6) n (%)
  On-treatment TEAE: Headache: 0 n (%)
  On-treatment TEAE: Headache, Mild: 0 n (%)
  On-treatment TEAE: Hyperkalaemia: 5 (22.7) n (%)
  On-treatment TEAE: Hyperkalaemia, Mild: 4 (18.2) n (%)
  On-treatment TEAE: Hyperkalaemia, Moderate: 1 (4.5) n (%)
  On-treatment TEAE: Hyperkalaemia, Severe: 0 n (%)
  On-treatment TEAE: Hypertension: 0 n (%)
  On-treatment TEAE: Hypertension, Moderate: 0 n (%)
  On-treatment TEAE: Infections and infestations: 1 (4.5) n (%)
  On-treatment TEAE: Infections and infestations, Mild: 0 n (%)
  On-treatment TEAE: Infections and infestations, Moderate: 1 (4.5) n (%)
  On-treatment TEAE: Investigations: 6 (27.3) n (%)
  On-treatment TEAE: Investigations, Mild: 5 (22.7) n (%)
  On-treatment TEAE: Investigations, Moderate: 1 (4.5) n (%)
  On-treatment TEAE: Metabolism and nutrition disorders: 5 (22.7) n (%)
  On-treatment TEAE: Metabolism and nutrition disorders, Mild: 4 (18.2) n (%)
  On-treatment TEAE: Metabolism and nutrition disorders, Moderate: 1 (4.5) n (%)
  On-treatment TEAE: Nervous system disorders: 1 (4.5) n (%)
  On-treatment TEAE: Nervous system disorders, Mild: 1 (4.5) n (%)
  On-treatment TEAE: Orthostatic hypotension: 1 (4.5) n (%)
  On-treatment TEAE: Orthostatic hypotension, Mild: 1 (4.5) n (%)
  On-treatment TEAE: Psychiatric disorders: 1 (4.5) n (%)
  On-treatment TEAE: Psychiatric disorders, Moderate: 1 (4.5) n (%)
  On-treatment TEAE: Urinary tract infection: 0 n (%)
  On-treatment TEAE: Urinary tract infection, Mild: 0 n (%)
  On-treatment TEAE: Vascular disorders: 2 (9.1) n (%)
  On-treatment TEAE: Vascular disorders, Mild: 2 (9.1) n (%)
  On-treatment TEAE: Vascular disorders, Moderate: 0 n (%)
  On-treatment TEAE: any, Mild: 8 (36.4) n (%)
  On-treatment TEAE: any, Moderate: 5 (22.7) n (%)
  On-treatment TEAE: any, Severe: 0 n (%)
  Subjects with any On-treatment TEAEs leading to withdrawal from study drug: 1 (4.5) n (%)
  TEAE leading to permanent discontinuation from study drug: Activated partial thromboplastin time prolonged: 0 n (%)
  TEAE leading to permanent discontinuation from study drug: Cardiac disorders: 0 n (%)
  TEAE leading to permanent discontinuation from study drug: Coronary artery disease: 0 n (%)
  TEAE leading to permanent discontinuation from study drug: Dizziness: 0 n (%)
  TEAE leading to permanent discontinuation from study drug: Hyperkalaemia: 0 n (%)
  TEAE leading to permanent discontinuation from study drug: Hypertension: 0 n (%)
  TEAE leading to permanent discontinuation from study drug: Hypotension: 0 n (%)
  TEAE leading to permanent discontinuation from study drug: Investigations: 0 n (%)
  TEAE leading to permanent discontinuation from study drug: Metabolism and nutrition disorders: 0 n (%)
  TEAE leading to permanent discontinuation from study drug: Nervous system disorders: 0 n (%)
  TEAE leading to permanent discontinuation from study drug: Orthostatic hypotension: 1 (4.5) n (%)
  TEAE leading to permanent discontinuation from study drug: Vascular disorders: 1 (4.5) n (%)
Part 1, 12.5 mg QD (N = 23)
  On-treatment TEAE: Blood and lymphatic system disorders: 0 n (%)
  On-treatment TEAE: Blood and lymphatic system disorders, Mild: 0 n (%)
  On-treatment TEAE: Blood creatinine increased: 0 n (%)
  On-treatment TEAE: Blood creatinine increased, Mild: 0 n (%)
  On-treatment TEAE: Cardiac disorders: 2 (8.7) n (%)
  On-treatment TEAE: Cortisol decreased: 0 n (%)
  On-treatment TEAE: Cortisol decreased, Mild: 0 n (%)
  On-treatment TEAE: Dizziness: 1 (4.3) n (%)
  On-treatment TEAE: Gastrointestinal disorders: 2 (8.7) n (%)
  On-treatment TEAE: Gastrointestinal disorders, Mild: 1 (4.3) n (%)
  On-treatment TEAE: General disorders and administration site conditions: 1 (4.3) n (%)
  On-treatment TEAE: General disorders and administration site conditions, Mild: 0 n (%)
  On-treatment TEAE: Glomerular filtration rate decreased: 1 (4.3) n (%)
  On-treatment TEAE: Glomerular filtration rate decreased, Mild: 1 (4.3) n (%)
  On-treatment TEAE: Headache: 0 n (%)
  On-treatment TEAE: Headache, Mild: 0 n (%)
  On-treatment TEAE: Hyperkalaemia: 6 (26.1) n (%)
  On-treatment TEAE: Hyperkalaemia, Mild: 4 (17.4) n (%)
  On-treatment TEAE: Hyperkalaemia, Moderate: 1 (4.3) n (%)
  On-treatment TEAE: Hyperkalaemia, Severe: 1 (4.3) n (%)
  On-treatment TEAE: Hypertension: 2 (8.7) n (%)
  On-treatment TEAE: Hypertension, Moderate: 1 (4.3) n (%)
  On-treatment TEAE: Infections and infestations: 3 (13.0) n (%)
  On-treatment TEAE: Infections and infestations, Mild: 3 (13.0) n (%)
